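Cells were grown in 96-well plates and exposed to each compound for 48 hours at five concentrations; endpoints were interpolated linearly between bracketing concentrations, or set to the highest concentration if not reached. At the TGI there is no net growth.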
Columns and labels:
Experiment in all cases: NCI anticancer screen, dose series, 48 h
MDA-MB-435 = system: MDA-MB-435
K-562 leukemia = system: K-562 leukemia
DU-145 prostate = system: DU-145 prostate
U251 CNS = system: U251 CNS
LOX IMVI melanoma = system: LOX IMVI melanoma
A549 NSCLC = system: A549 NSCLC
OVCAR-5 ovarian = system: OVCAR-5 ovarian
MALME-3M melanoma = system: MALME-3M melanoma
OVCAR-8 ovarian = system: OVCAR-8 ovarian
TK-10 renal = system: TK-10 renal
MDA-MB-231 breast = system: MDA-MB-231 breast
RPMI-8226 leukemia = system: RPMI-8226 leukemia
SNB-19 CNS = system: SNB-19 CNS
UACC-257 melanoma = system: UACC-257 melanoma
SK-MEL-5 melanoma = system: SK-MEL-5 melanoma
OVCAR-3 ovarian = system: OVCAR-3 ovarian
SW-620 colon = system: SW-620 colon
M14 melanoma = system: M14 melanoma
KM12 colon = system: KM12 colon
ACHN renal = system: ACHN renal
UO-31 renal = system: UO-31 renal
SK-OV-3 ovarian = system: SK-OV-3 ovarian
BT-549 breast = system: BT-549 breast
NCI/ADR-RES ovarian = system: NCI/ADR-RES ovarian
HOP-62 NSCLC = system: HOP-62 NSCLC
NCI-H23 lung = system: NCI-H23 lung
A498 renal = system: A498 renal
SF-539 CNS = system: SF-539 CNS
OVCAR-4 ovarian = system: OVCAR-4 ovarian
PC-3 prostate = system: PC-3 prostate
T-47D breast = system: T-47D breast
HS 578T breast = system: HS 578T breast
IGROV1 ovarian = system: IGROV1 ovarian
NCI-H226 lung = system: NCI-H226 lung
HL-60(TB) leukemia = system: HL-60(TB) leukemia
MOLT-4 leukemia = system: MOLT-4 leukemia
SK-MEL-28 melanoma = system: SK-MEL-28 melanoma
SF-268 CNS = system: SF-268 CNS
HT29 colon = system: HT29 colon
HCC-2998 colon = system: HCC-2998 colon
HCT-116 colon = system: HCT-116 colon
NCI-H460 lung = system: NCI-H460 lung
RXF 393 renal = system: RXF 393 renal
HCT-15 colon = system: HCT-15 colon
EKVX NSCLC = system: EKVX NSCLC
CAKI-1 renal = system: CAKI-1 renal
SN12C renal = system: SN12C renal
MCF7 breast = system: MCF7 breast
SF-295 CNS = system: SF-295 CNS
CCRF-CEM leukemia = system: CCRF-CEM leukemia
NCI-H522 lung = system: NCI-H522 lung
SNB-75 CNS = system: SNB-75 CNS
COLO 205 colon = system: COLO 205 colon
MDA-N = system: MDA-N
UACC-62 melanoma = system: UACC-62 melanoma
786-0 renal = system: 786-0 renal
SK-MEL-2 melanoma = system: SK-MEL-2 melanoma
HOP-92 NSCLC = system: HOP-92 NSCLC

Measured: TGI

Cc1cc2c(cc1Cl)SC(NNc1ccc([N+](=O)[O-])cc1)=NS2(=O)=O
not listed: HOP-92 NSCLC
> 10 µM: all other assays above

O=c1ccn(C2OC(CN(O)CCC3C(CO)OC(n4ccc(=O)[nH]c4=O)C3O)C(O)C2O)c(=O)[nH]1 (configuration not stated)
not listed: LOX IMVI melanoma | SF-539 CNS | NCI-H522 lung
> 100 µM: all other assays above

— PubChem BioAssay (NCI)
